From ChEMBL document CHEMBL1132901, “Synthesis and structure-activity relationships of quaternary ammonium cephalosporins with 3-pyrazolylpyridinium derivatives” (2000) come the findings set out here.

The test system of one assay is Klebsiella oxytoca. The experiment in a line: In vitro antimicrobial activity against Klebsiella oxytoca 1082. The format is functional.
In assay [1] the test system is Pseudomonas aeruginosa. Put plainly: In vitro antimicrobial activity against Pseudomonas aeruginosa 1771 M. It is filed as functional.
The test system of assay [2] is Streptococcus pyogenes. The experiment in a line: Compound has been evaluated for in vitro antimicrobial activity against Streptococcus pyogenes A 308. The format is functional.
Assay [3] has as its system Streptococcus pyogenes. Put plainly: In vitro antimicrobial activity against Streptococcus pyogenes 77A. The format is functional.
Assay [4] deals with Enterobacter cloacae. The experiment in a line: In vitro antimicrobial activity against Enterobacter cloacae P99. It is filed as functional.
The subject of assay [5] is Escherichia coli. The experiment in a line: In vitro antimicrobial activity against Escherichia coli 1507E. It is filed as functional.
The subject of assay [6] is Escherichia coli. The experiment in a line: In vitro antimicrobial activity against Escherichia coli DC 2. The format is functional.
The subject of assay [7] is Pseudomonas aeruginosa. The experiment in a line: In vitro antimicrobial activity against Pseudomonas aeruginosa 1592 E. The format is functional.
The next assay concerns Klebsiella aerogenes. The experiment in a line: In vitro antimicrobial activity against Klebsiella aerogenes 1522 E. It is filed as functional.
Assay [8] relates to Pseudomonas aeruginosa. Put plainly: In vitro antimicrobial activity against Pseudomonas aeruginosa 1771. The format is functional.
Assay [9] relates to Streptococcus pyogenes. The experiment in a line: In vitro antimicrobial activity against Streptococcus pyogenes SG 511. The format is functional.
Assay [10] deals with Escherichia coli. The experiment in a line: In vitro antimicrobial activity against Escherichia coli TEM. The format is functional.
For a further assay, the system named is Enterococcus faecium. Put plainly: In vitro antimicrobial activity against Streptococcus faecium MD 8b. The format is functional.
For assay [11], the system named is Enterobacter cloacae. Put plainly: In vitro antimicrobial activity against Enterobacter 1321 E. The format is functional.
The test system of assay [12] is Escherichia coli. The experiment in a line: In vitro antimicrobial activity against Escherichia coli 055. It is filed as functional.
Assay [13] deals with Pseudomonas aeruginosa. Put plainly: In vitro antimicrobial activity against Pseudomonas aeruginosa 9027. It is filed as functional.
The test system of assay [14] is Staphylococcus aureus. The experiment in a line: In vitro antimicrobial activity against Methicillin resistant Staphylococcus aureus (MRSA). The format is functional.
The test system of assay [15] is Staphylococcus aureus. Put plainly: In vitro antimicrobial activity against Staphylococcus aureus 503. It is filed as functional.
The subject of assay [16] is Staphylococcus aureus. The experiment in a line: In vitro antimicrobial activity against Staphylococcus aureus 285. The format is functional.
Assay [17] relates to Escherichia coli. Put plainly: In vitro antimicrobial activity against Escherichia coli DC 0. The format is functional.
The test system of another assay is Salmonella typhimurium. The experiment in a line: In vitro antimicrobial activity against Salmonella Typhimurium. It is filed as functional, Salmonella enterica subsp. enterica serovar Typhimurium. To be noted: Salmonella enterica.
The subject of assay [18] is Streptococcus pyogenes. The experiment in a line: In vitro antimicrobial activity against Streptococcus pyogenes A 308. The format is functional.

Converted amounts (≈) assume the structure as drawn.

Turning to `CO/N=C(/C(=O)NC1C(=O)N2C(C(=O)[O-])=C(C[n+]3cccc4c3CCC4)CSC12)c1csc(N)n1` (stereo not drawn), the MIC – broadly, the least concentration at which growth counts as inhibited – in the assay on Klebsiella oxytoca was determined as 1.56 µg/mL (≈ 3.04 µM); in the assay on Pseudomonas aeruginosa [1] it was 0.195 µg/mL (≈ 0.379 µM); against Streptococcus pyogenes [2], 0.007 µg/mL (≈ 0.0136 µM); against Streptococcus pyogenes [3], 0.007 µg/mL (≈ 0.0136 µM); with Enterobacter cloacae [4], 3.12 µg/mL (≈ 6.07 µM); in the assay with Escherichia coli [5] it was 0.025 µg/mL (≈ 0.0486 µM). In addition, the minimum inhibitory concentration (MIC) with Escherichia coli [6] amounted to 0.013 µg/mL (≈ 0.0253 µM); against Pseudomonas aeruginosa [7] it was 1.56 µg/mL (≈ 3.04 µM); against Klebsiella aerogenes it was 0.025 µg/mL (≈ 0.0486 µM); in the assay on Pseudomonas aeruginosa [8] it was 0.781 µg/mL (≈ 1.52 µM); in the assay with Streptococcus pyogenes [9], 0.391 µg/mL (≈ 0.76 µM); in the assay with Escherichia coli [10], 0.049 µg/mL (≈ 0.0952 µM). Besides, the MIC against Enterococcus faecium is 1.56 µg/mL (≈ 3.04 µM); in the assay with Enterobacter cloacae [11], 0.013 µg/mL (≈ 0.0253 µM); against Escherichia coli [12], 0.025 µg/mL (≈ 0.0486 µM); against Pseudomonas aeruginosa [13], 3.12 µg/mL (≈ 6.07 µM); with Staphylococcus aureus [14] it was 25 µg/mL (≈ 48.6 µM); against Staphylococcus aureus [15], 0.098 µg/mL (≈ 0.19 µM). The MIC in the assay on Staphylococcus aureus [16] was 0.781 µg/mL (≈ 1.52 µM); in the assay with Escherichia coli [17], 0.013 µg/mL (≈ 0.0253 µM); with Salmonella typhimurium, 0.025 µg/mL (≈ 0.0486 µM).

In the case of `CO/N=C(/C(=O)N[C@@H]1C(=O)N2C(C(=O)[O-])=C(C[n+]3cccc(-c4cc(N)[nH]n4)c3)CS[C@H]12)c1csc(N)n1`, the MIC with Klebsiella oxytoca came out at 1.56 µg/mL (≈ 2.81 µM); against Pseudomonas aeruginosa [1] it was 0.195 µg/mL (≈ 0.351 µM); against Streptococcus pyogenes [3] it was 0.007 µg/mL (≈ 0.0126 µM); with Enterobacter cloacae [4], 50 µg/mL (≈ 90 µM); in the assay with Escherichia coli [5], 0.025 µg/mL (≈ 0.045 µM); against Escherichia coli [6] it was 0.013 µg/mL (≈ 0.0234 µM). Also, the MIC was 1.56 µg/mL (≈ 2.81 µM) in the assay on Pseudomonas aeruginosa [7]; 0.007 µg/mL (≈ 0.0126 µM) against Streptococcus pyogenes [18]; 0.025 µg/mL (≈ 0.045 µM) against Klebsiella aerogenes; 0.781 µg/mL (≈ 1.41 µM) in the assay on Pseudomonas aeruginosa [8]; 0.391 µg/mL (≈ 0.704 µM) in the assay with Streptococcus pyogenes [9]; 0.049 µg/mL (≈ 0.0882 µM) in the assay on Escherichia coli [10]. Further, the MIC against Enterococcus faecium was determined as 1.56 µg/mL (≈ 2.81 µM); in the assay on Enterobacter cloacae [11] it was 0.013 µg/mL (≈ 0.0234 µM); in the assay on Escherichia coli [12], 0.013 µg/mL (≈ 0.0234 µM); against Pseudomonas aeruginosa [13] it was 3.12 µg/mL (≈ 5.62 µM); in the assay on Staphylococcus aureus [14], 25 µg/mL (≈ 45 µM); against Staphylococcus aureus [15] it was 0.195 µg/mL (≈ 0.351 µM). The values for the MIC with Staphylococcus aureus [16], against Escherichia coli [17] and with Salmonella typhimurium were 0.781 µg/mL (≈ 1.41 µM), 0.025 µg/mL (≈ 0.045 µM) and 0.049 µg/mL (≈ 0.0882 µM), respectively.

As for `CC(C)(O/N=C(\C(=O)N[C@@H]1C(=O)N2C(C(=O)[O-])=C(C[n+]3ccccc3)CS[C@H]12)c1csc(N)n1)C(=O)O` [CEFTAZIDIME], the MIC with Klebsiella oxytoca is 0.391 µg/mL (≈ 0.715 µM); in the assay on Pseudomonas aeruginosa [1] it was 0.195 µg/mL (≈ 0.357 µM); in the assay on Streptococcus pyogenes [3] it was 0.049 µg/mL (≈ 0.0896 µM); in the assay with Enterobacter cloacae [4], greater than 100 µg/mL; against Escherichia coli [5], 0.195 µg/mL (≈ 0.357 µM); with Escherichia coli [6], 0.098 µg/mL (≈ 0.179 µM). Besides, the MIC against Pseudomonas aeruginosa [7] is 1.56 µg/mL (≈ 2.86 µM); in the assay on Streptococcus pyogenes [18], 0.098 µg/mL (≈ 0.179 µM); in the assay on Klebsiella aerogenes it was 0.098 µg/mL (≈ 0.179 µM); in the assay with Pseudomonas aeruginosa [8], 0.781 µg/mL (≈ 1.43 µM); with Streptococcus pyogenes [9] it was 12.5 µg/mL (≈ 22.9 µM); in the assay with Escherichia coli [10], 0.195 µg/mL (≈ 0.357 µM). Moreover, the MIC in the assay with Enterococcus faecium was greater than 100 µg/mL; against Enterobacter cloacae [11] it was 0.025 µg/mL (≈ 0.0457 µM); in the assay with Escherichia coli [12] it was 0.098 µg/mL (≈ 0.179 µM); in the assay on Pseudomonas aeruginosa [13], 3.12 µg/mL (≈ 5.72 µM); in the assay with Staphylococcus aureus [14] it was greater than 100 µg/mL; against Staphylococcus aureus [15], 3.12 µg/mL (≈ 5.72 µM). Besides, the MIC amounted to 12.5 µg/mL (≈ 22.9 µM) against Staphylococcus aureus [16], 0.098 µg/mL (≈ 0.179 µM) in the assay on Escherichia coli [17] and 0.195 µg/mL (≈ 0.357 µM) with Salmonella typhimurium.
